# Patent publication US20080207693A1, “Mitotic Kinesin Inhibitors” (priority 2005, published 2008)
# Molecular target: T1, human KSP motor domain (KSP(367H)) (Homo sapiens, UniProt P52732)
# T1 construct: were used to amplify the motor domain and the neck linker region; made in house; host or cells: E. coli BL21 (DE3), vector pRSETa
# T1 sequence (P52732 18-359 limits assumed): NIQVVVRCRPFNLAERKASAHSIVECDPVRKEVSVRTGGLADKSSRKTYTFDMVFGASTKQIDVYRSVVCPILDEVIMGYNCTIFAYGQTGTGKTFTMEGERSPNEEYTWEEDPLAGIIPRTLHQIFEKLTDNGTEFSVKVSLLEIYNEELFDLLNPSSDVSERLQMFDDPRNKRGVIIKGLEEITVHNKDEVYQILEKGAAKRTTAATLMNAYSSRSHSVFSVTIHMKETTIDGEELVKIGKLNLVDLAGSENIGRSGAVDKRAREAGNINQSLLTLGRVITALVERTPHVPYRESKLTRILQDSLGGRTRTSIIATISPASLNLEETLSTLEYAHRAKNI
# Experiment: Kinesin ATPase in vitro assay
# Type: biochemical
# Details: KSP motor domain with microtubules, 1 mM ATP, 23° C.; free phosphate by quinaldine red/ammonium molybdate
# Excerpt: I. Kinesin ATPase In Vitro Assay
# Cloning and Expression of Human Poly-Histidine Tagged KSP Motor Domain (KSP(367H))
# Plasmids for the expression of the human KSP motor domain construct were cloned by PCR using a pBluescript full length human KSP construct (Blangy et al., Cell, vol. 83, pp 1159-1169, 1995) as a template. The N-terminal primer 5′-[…] (SEQ. ID. NO.: 1) and the C-terminal primer 5′-[…] […] (SEQ. ID. NO.: 2) were used to amplify the motor domain and the neck linker region. The PCR products were digested with AseI and XhoI, ligated into the NdeI/XhoI digestion product of pRSETa (Invitrogen) and transformed into E. coli BL21 (DE3).
# Cells were grown at 37° C. to an OD600 of 0.5. […]
# The kinesin motor domain is incubated with microtubules, 1 mM ATP (1:1 MgCl2: Na-ATP), and compound at 23° C. in buffer containing 80 mM K-HEPES (pH 7.0), 1 mM EGTA, 1 mM DTT, 1 mM MgCl2, and 50 mM KCl. […] Free phosphate from the ATP hydrolysis reaction is measured via a quinaldine red/ammonium molybdate assay by adding 150 μl of quench C buffer containing a 2:1 ratio of quench A:quench B. Quench A contains 0.1 mg/ml quinaldine red and 0.14% polyvinyl alcohol; quench B contains 12.3 mM ammonium molybdate tetrahydrate in 1.15 M sulfuric acid. The reaction is incubated for 10 minutes at 23° C., and the absorbance of the phospho-molybdate complex is measured at […].
smiles,measurement,value
"CN(C(=O)N1CC(c2cc(F)ccc2F)=C[C@@]1(CO)c1ccccc1)[C@H]1CCN(CCC[Si](C)(C)C)C[C@H]1F [Compound 11-1, (2S)-4-(2,5-difluorophenyl)-N-{(3R,4S)-3-fluoro-1-[3-(trimethylsilyl)propyl]piperidin-4-yl}-2-(hydroxymethyl)-N-methyl-2-phenyl-2,5-dihydro-1H-pyrrole-1-carboxamide]",IC50,≤ 50 µM
